Test results: patent US20040142977A1, “4-Substituted-picolinic acid amide derivatives useful as fungicides” (priority 2001, published 2004)

O=Cc1ccnc(C(=O)Nc2ccc(Oc3ccc(C(F)(F)F)cc3)cc2)c1O [1-2, 2-{N-para-[4-(trifluoromethylphenoxy)phenyl]} aminocarbonyl-3-hydroxy-4-formyl pyridine]
melting point: 160 °C
